Experimental data published in article PMC8968952, “Modulation of ERCC1-XPF Heterodimerization Inhibition via Structural Modification of Small Molecule Inhibitor Side-Chains” (Frontiers in Oncology, 2022).

Columns and labels:
[1] = tested on: ERCC1 or XPF levels in A549 cells; assay: Western blot of ERCC1 and XPF protein levels (PLA control); assay type: cell-based, human; conditions: 2 µM, 24 h
Experimental: page 1: Supplementary Material […] Supplementary Figure 1. ERCC1-XPF mediated cleavage of the stem-loop DNA substrate, in which the FAM signal is quenched, releases the fluorescently tagged octanucleotide. Triplicate measurements of the control (DMSO) and the effect of 10 μM of compounds 4 and 6 on the incision activity is shown. 2 PLA Control Experiments Supplementary Figure 2. A549 cells were seeded in 6-well culture dishes (Thermo Fishes Scientific) at a density of 0.3 X 10^6 cells/well in a final volume of 3 ml. […] The chambers were incubated for 24 h and then washed with PBS and the cells were solubilized with RIPA buffer in the presence of protease inhibitor cocktail (Cell Signaling Technology) plus 2 mM EDTA. […] EpiGentek), XPF (LS- C173159, 1:1000; LifeSpan BioSciences, Seattle, WA) and B-Actin (sc-47778, 1:1000; Santa Cruz) primary antibodies followed by secondary anti-mouse or anti-rabbit secondary HRP-conjugated secondary antibodies. ECL chemiluminescent substrate (Promega) was used to detect the proteins. 3 Cytotoxicity Analysis Supplementary Figure 3. Cytotoxicity assay using colony forming assay 4 HCT-116 Derived XPF Knockout Cells For CRISPR deletion of XPF from HCT-116 cells, the pSpCas9(BB)-2A-GFP (pX458) vector (Addgene plasmid # 48138) was used. The short guide sequence to target XPF exon one was: 5'- [NT] 3' and target XPF exon eight was: 5'- [NT]3'. […]

[2] = tested on: HCT-116 cells; assay: Clonogenic survival assay, UV treatment; assay type: cell-based, human
Experimental: HCT-116 cells (100–800 cells depending on the UV dose) were plated in triplicate in 60-mm Petri dishes in DMEM/F12 medium. Following overnight attachment of the cells in a humidified atmosphere containing 5% CO2 at 37°C, the cells were treated with 0.5 μM compound 6 or 10 in DMSO (as described in section 2.7) for 4 h before the medium was removed, and the cells exposed to increasing doses (0–10 J/m^2) of UV-C radiation. The cells were then cultured for a further 24 h in the presence of inhibitor and then for an additional 9 days in the absence of inhibitor to allow for colony formation. Colonies were stained with crystal violet and counted using a Colcount instrument (Oxford Optronix, Abingdon UK) to facilitate determination of plating efficiency and surviving fraction. Data were plotted using GraphPad Prism version 5.04 software.

[3] = tested on: HCT-116 cells; assay: Clonogenic survival assay, ionizing radiation; assay type: cell-based, human; conditions: 0.5 and 1 μM, 0 to 8 Gy γ-radiation
Experimental: The effectiveness of compound 6 for sensitization of cells to ionizing radiation was also assessed using the clonogenic survival assay. Briefly, 200-3000 of HCT-116 cells (depending on the radiation dose) were seeded and after 24 hours the cells were pretreated with 0.5 or 1 µM of compound 6 in DMSO for 4 hours followed by exposure to increasing doses of γ-radiation (^60Co Gammacell; Atomic Energy of Canada Limited, Ottawa) from 0 to 8 Gy (at a dose rate of 0.8 Gy/min) and kept for an additional 24 hours in inhibitor-containing medium. The medium was then replaced with fresh medium without the compound, and the plates were incubated at 37°C for 9 more days before staining and determining the number of colonies. Data were plotted using GraphPad Prism version 5.04 software.

[4] = Distribution coefficient (log D at pH 7.4); assay type: physicochemical
Experimental: (§1) The ADME (absorption, distribution, metabolism, and excretion) profile of our lead compound 6 was determined by standard protocols carried out by WuXi AppTec (Shanghai) Co (https://www.wuxiapptec.com/). The following tests were conducted: distribution coefficient (log D at pH 7.4), aqueous solubility (Kinetic), metabolic stability in human liver microsomes and cryopreserved human hepatocytes, bidirectional permeability in Caco-2 cells, serum protein binding, and cytochrome P450 (CYP) inhibition (CYP1A2, CYP2C9, CYP2C19, CYP2D6, and CYP3A4-M).

[5] = Metabolic stability in cryopreserved human hepatocytes; assay type: in vitro ADME
Experimental: as §1

logD [4]: 3.95
metabolic stability grade, hepatocyte assay (in words) [5]: low to moderate metabolic stability
CLint scaled ([5]; human, cryopreserved hepatocytes, read-out: Metabolic stability in cryopreserved human hepatocytes (clearance)): 33.5 mL/min/kg
half-life ([5]; human, cryopreserved hepatocytes, read-out: Metabolic stability in cryopreserved human hepatocytes T1/2): 1.92 h
Structure (SMILES): COc1ccc2nc3cc(Cl)ccc3c(Nc3ccc(O)c(CN4CCN(CCN(C(C)C)C(C)C)CC4)c3)c2c1 [Compound 6]
levels of ERCC1 or XPF vs untreated cells [1]: no significant differences
sensitization to UVC radiation (in words) ([2]; 0.5 μM): sensitized cells to UVC radiation
cell survival after UVC ([2]; 0.5 μM compound, 4 J/m^2 UVC): < 50%
sensitization to ionizing radiation (in words) [3]: sensitized HCT-116 cells in a dose-dependent manner
